Data as given in US11236046B2, “Substituted heterocyclic sulfonamide compounds useful as TRPA1 modulators” (Genentech, Inc., priority 2013, dated 2022).

Target: T1, human TRPA1 (Homo sapiens (Human), UniProt O75762)
Assay: FLIPR Tetra calcium influx assay, block of cinnamaldehyde-induced calcium influx in CHO cells expressing TRPA1 (human)
Assay type: cell-based
Settings: 20 min compound incubation, 75 uM cinnamaldehyde (~EC80), Hill coefficient fixed to 1.5, read-out: hTRPA1 AUC IC50
How it was run: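 CHO cells loaded with calcium dye, preincubated with compounds 20 min at room temperature in HBSS/20 mM HEPES pH 7.4 with 0.02% BSA. Channels activated by ~EC80 cinnamaldehyde (75 uM human, 45 uM rat); block of calcium influx read on FLIPR Tetra, IC50 fitted with fixed Hill coefficient.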

T1 sequence (O75762 whole entry): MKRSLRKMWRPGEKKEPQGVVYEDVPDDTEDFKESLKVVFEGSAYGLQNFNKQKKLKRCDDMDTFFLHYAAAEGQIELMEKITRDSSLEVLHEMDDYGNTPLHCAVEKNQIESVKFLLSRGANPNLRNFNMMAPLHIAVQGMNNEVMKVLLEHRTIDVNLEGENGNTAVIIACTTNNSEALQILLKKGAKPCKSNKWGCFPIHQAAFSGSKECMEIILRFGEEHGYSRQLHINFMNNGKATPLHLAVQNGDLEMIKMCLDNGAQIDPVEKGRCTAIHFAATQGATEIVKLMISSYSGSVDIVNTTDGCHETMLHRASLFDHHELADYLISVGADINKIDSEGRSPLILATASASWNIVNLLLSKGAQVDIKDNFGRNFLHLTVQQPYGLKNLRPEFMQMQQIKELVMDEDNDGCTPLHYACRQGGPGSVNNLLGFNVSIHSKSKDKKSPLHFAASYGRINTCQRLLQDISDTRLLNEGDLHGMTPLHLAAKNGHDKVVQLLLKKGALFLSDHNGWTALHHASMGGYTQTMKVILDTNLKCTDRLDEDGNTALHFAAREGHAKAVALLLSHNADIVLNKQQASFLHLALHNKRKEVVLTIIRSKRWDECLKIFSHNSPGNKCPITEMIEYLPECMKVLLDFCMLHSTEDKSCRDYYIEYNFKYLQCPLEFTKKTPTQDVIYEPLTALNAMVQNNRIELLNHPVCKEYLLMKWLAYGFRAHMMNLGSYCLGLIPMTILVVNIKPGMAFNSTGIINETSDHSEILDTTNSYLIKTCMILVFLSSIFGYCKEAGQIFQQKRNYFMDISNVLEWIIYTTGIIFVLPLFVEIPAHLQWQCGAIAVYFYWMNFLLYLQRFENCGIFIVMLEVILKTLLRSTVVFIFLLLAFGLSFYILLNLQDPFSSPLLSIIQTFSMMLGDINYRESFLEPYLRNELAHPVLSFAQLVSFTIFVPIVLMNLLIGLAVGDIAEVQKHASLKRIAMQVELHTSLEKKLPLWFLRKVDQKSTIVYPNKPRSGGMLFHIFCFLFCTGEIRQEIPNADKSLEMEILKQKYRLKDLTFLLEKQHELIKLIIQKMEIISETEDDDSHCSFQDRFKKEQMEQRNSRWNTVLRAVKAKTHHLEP

First: O=C(NCc1cc(-c2ccc(C(F)(F)F)nc2)ccn1)[C@@H]1C[C@@H](F)CN1S(=O)(=O)c1ccc(F)cc1 [Example 81, (2S,4R)-4-fluoro-1-(4-fluorophenyl)sulfonyl-N-[[4-[6-(trifluoromethyl)-3-pyridyl]-2-pyridyl]methyl]pyrrolidine-2-carboxamide]
Second: (2S,4R)-4-fluoro-1-(4-fluorophenyl)sulfonyl-N-[[3-fluoro-5-[2-(trifluoromethyl)thiazol-5-yl]phenyl]methyl]pyrrolidine-2-carboxamide [Example 174]
The IC50 of the first is 16-fold higher: 0.187 µM for the first, 0.012 µM for the second. The second is the more potent here.

First: O=C(NCc1cc(-c2ccc(C(F)(F)F)nc2)ncn1)[C@@H]1C[C@@H](F)CN1S(=O)(=O)c1ccc(F)c(F)c1 [Example 156, (2S,4R)-1-(3,4-difluorophenylsulfonyl)-4-fluoro-N-((6-(6-(trifluoromethyl)pyridin-3-yl)pyrimidin-4-yl)methyl)pyrrolidine-2-carboxamide]
Second: O=C(NCc1cc(-c2cnc(C(F)(F)F)nc2)c(F)cn1)[C@@H]1C[C@@H](F)CN1S(=O)(=O)c1ccc(F)cc1 [Example 167, (2S,4R)-4-fluoro-N-((5-fluoro-4-(2-(trifluoromethyl)pyrimidin-5-yl)pyridin-2-yl)methyl)-1-(4-fluorophenylsulfonyl)pyrrolidine-2-carboxamide]
The IC50 of the first is 2.9-fold higher: 0.109 µM for the first, 0.038 µM for the second.

`O=C(NCc1cn(-c2ccc(C(F)(F)F)nc2)nc1Cl)[C@@H]1CCN1S(=O)(=O)c1ccc(F)cc1` [Example 199, (2S)—N-([3-chloro-1-[6-(trifluoromethyl)pyridin-3-yl]-1H-pyrazol-4-yl]methyl)-1-[(4-fluorobenzene)sulfonyl]azetidine-2-carboxamide] was tested, and the IC50 was 0.138 µM.

Target: T1, human TRPA1
Assay: IC50 determination on the human TRPA1 channel, calcium fluorescence (Hamamatsu FDSS plate reader)
Assay type: cell-based
Settings: CHO cells expressing human TRPA1; block of cinnamaldehyde induced calcium influx; 20 minutes compound incubation; Hill coefficient fixed to 1.5; read-out: hTRPA1 AUC IC50
Method: IC50s (effective concentration) of compounds on the human TRPA1 channel were determined using a Hamamatsu FDSS fluorescence plate reader. CHO cells expressing human TRPA1 were plated into 384-well plates, incubated overnight at 37 C, and loaded with BD calcium indicator dye for 1 hr at 37° C. followed by 15 minutes. at room temperature. The assay buffer was Hank's Balanced Salt Solution (HBSS) containing 20 mM HEPES (pH readjusted to 7.4) along with 0.02% BSA.
Following dye load and plate cool down, compounds were added to the cells using the FDSS while monitoring fluorescence to determine whether any of the test compounds have TRPA1 agonist activity. Plates were then incubated with compound for 20 minutes at room temperature prior to adding agonist. Following this incubation, […] cinnamaldehyde was added to all wells of the plate and block of this cinnamaldehyde induced calcium influx was measured.
Fixing the Hill coefficient will generally reduce variability of the IC50 determination. The IC50s were examined by eye to make sure the MIN and MAX points were set correctly prior to validation of the results.

`O=C(NCc1cc(N2CCC(C(F)(F)F)CC2)c(F)cn1)[C@@H]1C[C@@H](F)CN1S(=O)(=O)c1ccc(F)cc1` [Example 37, (2S,4R)-4-fluoro-N-((5-fluoro-4-(4-(trifluoromethyl)piperidin-1-yl)pyridin-2-yl)methyl)-1-(4-fluorophenylsulfonyl)pyrrolidine-2-carboxamide] and `O=C(NCc1cc(C2=CCC(C(F)(F)F)CC2)ncn1)[C@@H]1C[C@@H](F)CN1S(=O)(=O)c1ccc(F)cc1` (stereo partly drawn) [Example 12, (2S,4R)-4-fluoro-1-(4-fluorophenylsulfonyl)-N-((6-(4-(trifluoromethyl)cyclohex-1-enyl)pyrimidin-4-yl)methyl)pyrrolidine-2-carboxamide] are within 1.5-fold of each other in IC50: 0.021 µM for the first, 0.03 µM for the second.

Going from `O=C(NCc1cc(-c2ccc(C3CC3)cc2)ncn1)[C@@H]1C[C@@H](F)CN1S(=O)(=O)c1ccc(F)cc1` [Example 10, (2S,4R)—N-((6-(4-cyclopropylphenyl)pyrimidin-4-yl)methyl)-4-fluoro-1-(4-fluorophenylsulfonyl)pyrrolidine-2-carboxamide] to `O=C(NCc1cc(-c2ccc(C(F)(F)F)cc2)ncn1)[C@@H]1C[C@@H](F)CN1S(=O)(=O)c1ccc(F)cc1` [Example 5, (2S,4R)-4-fluoro-1-(4-fluorophenylsulfonyl)-N-((6-(4-(trifluoromethyl)phenyl)pyrimidin-4-yl)methyl)pyrrolidine-2-carboxamide], the IC50 falls from 0.107 µM to 0.015 µM (7.1-fold).

Going from `N#C[C@@]1(C(=O)NCc2cc(-c3ccc(C(F)(F)F)nc3)ncn2)CCCN1S(=O)(=O)c1ccc(F)cc1` [Example 32, (R)-2-cyano-1-(4-fluorophenylsulfonyl)-N-((6-(6-(trifluoromethyl)pyridin-3-yl)pyrimidin-4-yl)methyl)pyrrolidine-2-carboxamide] to `C[C@@]1(C(=O)NCc2cc(-c3ccc(C(F)(F)F)nc3)ncn2)CCCN1S(=O)(=O)c1ccc(F)cc1` [Example 1, (S)-1-(4-fluorophenylsulfonyl)-2-methyl-N-((6-(6-(trifluoromethyl)pyridin-3-yl)pyrimidin-4-yl)methyl)pyrrolidine-2-carboxamide], the IC50 falls from 0.867 µM to 0.051 µM (17-fold). The second is the more potent here.

Compared with `O=C(NCc1cc(-c2ccc(C(F)(F)F)nc2)ncn1)[C@@H]1[C@H](F)CCN1S(=O)(=O)c1ccc(F)cc1` [Example 36, (2R,3R)-3-fluoro-1-(4-fluorophenylsulfonyl)-N-((6-(6-(trifluoromethyl)pyridin-3-yl)pyrimidin-4-yl)methyl)pyrrolidine-2-carboxamide], `O=C(NCc1cc(-c2ccc(C(F)(F)F)nc2)ncn1)[C@@H]1[C@@H](F)CCN1S(=O)(=O)c1ccc(F)cc1` [Example 35, (2R,3S)-3-fluoro-1-(4-fluorophenylsulfonyl)-N-((6-(6-(trifluoromethyl)pyridin-3-yl)pyrimidin-4-yl)methyl)pyrrolidine-2-carboxamide] is 5.2-fold lower in IC50: 0.12 µM for the first, 0.023 µM for the second.

`Cc1nc(CNC(=O)[C@@H]2C[C@@H](F)CN2S(=O)(=O)c2ccc(F)cc2)cc(-c2ccc(C(F)(F)F)nc2)n1` [Example 22, (2S,4R)-4-fluoro-1-(4-fluorophenylsulfonyl)-N-((2-methyl-6-(6-(trifluoromethyl)pyridin-3-yl)pyrimidin-4-yl)methyl)pyrrolidine-2-carboxamide] and `O=C(NCc1cc(-c2ccc(C(F)(F)F)nc2)ncn1)[C@@H]1C[C@@H](F)CN1S(=O)(=O)c1ccc(F)cc1` [Example 3, (2S,4R)-4-fluoro-1-(4-fluorophenylsulfonyl)-N-((6-(6-(trifluoromethyl)pyridin-3-yl)pyrimidin-4-yl)methyl)pyrrolidine-2-carboxamide] are within 1.5-fold of each other in IC50: 0.087 µM for the first, 0.097 µM for the second.

`O=C(NCc1cn(-c2ccc(C(F)(F)F)nc2)nc1C1CC1)[C@@H]1C[C@@H](F)CN1S(=O)(=O)c1ccc(F)cc1` [Example 17, (2S,4R)—N-([3-cyclopropyl-1-[6-(trifluoromethyl)pyridin-3-yl]-1H-pyrazol-4-yl]methyl)-4-fluoro-1-[(4-fluorobenzene)sulfonyl]pyrrolidine-2-carboxamide] and `N#Cc1ccc(S(=O)(=O)N2C[C@H](F)C[C@H]2C(=O)NCc2cn(-c3ccc(C(F)(F)F)cc3)nc2Cl)cc1` [Example 18, (2S,4R)—N-([3-chloro-1-[4-(trifluoromethyl)phenyl]-1H-pyrazol-4-yl]methyl)-1-[(4-cyanobenzene)sulfonyl]-4-fluoropyrrolidine-2-carboxamide] are within 1.5-fold of each other in IC50: 0.055 µM for the first, 0.049 µM for the second.

First: C[C@@]1(C(=O)NCc2cc(-c3ccc(C(F)(F)F)cc3)ncn2)C[C@@H](F)CN1S(=O)(=O)c1ccc(F)cc1 (single isomer, unassigned) [Example 20]
Second: C[C@@]1(C(=O)NCc2cc(-c3ccc(C(F)(F)F)nc3)ncn2)C[C@@H](F)CN1S(=O)(=O)c1ccc(F)cc1 (single isomer, unassigned) [Example 19]
The IC50 of the first is 2.3-fold lower: 0.007 µM for the first, 0.016 µM for the second. The first is the more potent here.

Going from `C[C@@]1(C(=O)NCc2cc(-c3ccc(C(F)(F)F)cn3)ncn2)CCCN1S(=O)(=O)c1ccc(F)cc1` [Example 14, (S)-1-(4-fluorophenylsulfonyl)-2-methyl-N-((6-(5-(trifluoromethyl)pyridin-2-yl)pyrimidin-4-yl)methyl)pyrrolidine-2-carboxamide] to `C[C@@]1(C(=O)NCc2cc(-c3ccc(C(F)(F)F)nc3)ncn2)CCN1S(=O)(=O)c1ccc(F)cc1` [Example 2, (S)-1-(4-fluorophenylsulfonyl)-2-methyl-N-((6-(6-(trifluoromethyl)pyridin-3-yl)pyrimidin-4-yl)methyl)azetidine-2-carboxamide], the IC50 falls from 0.268 µM to 0.059 µM (4.5-fold).

Going from `O=C(NCc1cc(-c2ccc(C(F)(F)F)cc2)ncn1)[C@@H]1C[C@@H](F)CN1S(=O)(=O)c1cncc(F)c1` [Example 28, (2S,4R)-4-fluoro-1-(5-fluoropyridin-3-ylsulfonyl)-N-((6-(4-(trifluoromethyl)phenyl)pyrimidin-4-yl)methyl)pyrrolidine-2-carboxamide] to `O=C(NCc1cc(-c2ccc(C(F)(F)F)nc2)ncn1)[C@@H]1C[C@@H](F)CN1S(=O)(=O)c1cncc(F)c1` [Example 27, (2S,4R)-4-fluoro-1-(5-fluoropyridin-3-ylsulfonyl)-N-((6-(6-(trifluoromethyl)pyridin-3-yl)pyrimidin-4-yl)methyl)pyrrolidine-2-carboxamide], the IC50 rises from 0.229 µM to 3 µM (13-fold). The first is the more potent here.

Going from `O=C(NCc1cc(-c2ccc(C(F)(F)F)nc2)ncn1)[C@]1(C(F)F)CCCN1S(=O)(=O)c1ccc(F)cc1` [Example 31, (S)-2-(difluoromethyl)-1-(4-fluorophenylsulfonyl)-N-((6-(6-(trifluoromethyl)pyridin-3-yl)pyrimidin-4-yl)methyl)pyrrolidine-2-carboxamide] to `O=C(NCc1cc(-c2ccc(C(F)(F)F)nc2)ncn1)[C@]1(CO)CCCN1S(=O)(=O)c1ccc(F)cc1` [Example 7, (R)-1-(4-fluorophenylsulfonyl)-2-(hydroxymethyl)-N-((6-(6-(trifluoromethyl)pyridin-3-yl)pyrimidin-4-yl)methyl)pyrrolidine-2-carboxamide], the IC50 rises from 0.029 µM to 0.284 µM (9.8-fold).

Compound `COC[C@@]1(C(=O)NCc2cc(-c3ccc(C(F)(F)F)nc3)ncn2)CCCN1S(=O)(=O)c1ccc(F)cc1` [Example 30, (R)-1-(4-fluorophenylsulfonyl)-2-(methoxymethyl)-N-((6-(6-(trifluoromethyl)pyridin-3-yl)pyrimidin-4-yl)methyl)pyrrolidine-2-carboxamide] has an IC50 of 0.252 µM.
